Measured values: patent US12702694B2, “Methods for identification, assessment, prevention, and treatment of metabolic disorders using SLIT2” (Dana-Farber Cancer Institute, Inc., priority 2015, dated 2026)

What was measured:
primary inguinal cells = assay: Thermogenic gene expression in Slit2-C transduced primary inguinal cells co-treated with inhibitors; assay type: cell-based, Mus musculus
Protocol: Inguinal and brown stromal-vascular fractions were obtained from 6 weeks old male or newborn mice (postnatal days 5-10) for white and brown fat cultures, respectively. Inguinal fat tissue was dissected and washed with PBS, minced and digested for 45 min at 37° C. in PBS containing 10 mM CaCl2), 2.4 U/ml dispase II (Roche) and 10 mg/ml collagenase D (Roche). Brown fat tissue was dissected, washed with PBS, minced and digested for 45 min at 37° C. in PBS containing 1.3 mM CaCl2, 123 mM NaCl, 5 mM KCl, 5.0 mM glucose, 100 mM HEPES, 4% BSA and 1.5 mg/ml collagenase B (Roche). Digested tissue was filtered through a 100-μm cell strainer and centrifuged at 600 g for 10 min. Pelleted inguinal stromal-vascular cells were grown to confluence and induced to differentiate by an adipogenic cocktail containing 0.02 μM insulin, 1 μM rosiglitazone, 5 μM dexamethasone, 0.5 μM isobuthylmethylxanthine. For differentiation of brown fat cells, 1 nM T3 and 125 μM indomethacin were also added to the adipogenic cocktail. Two days after induction, cells were maintained in adipocyte culture medium containing 0.02 μM insulin and 1 μM rosiglitazone. Where indicated, cells were treated with forskolin (10 μM), norepinephrine (100 nM) for 4 h or with recombinant proteins (1 μg/ml, R&D systems) for 24 h or for the indicated times. For adenoviral overexpression of Slit2-FL, Slit2-N, Slit2-C, LacZ or Cre, virus was added at day 2 of differentiation at a titer of 10^8 particles/well and cells were analyzed at day 6-7. […]
(§1) RNA was extracted from cultured cells or frozen tissue samples using TRIzol®, purified with QIAGEN RNeasy® minicolumns. Normalized RNA was reversed transcribed using a high-capacity cDNA reverse transcription lot (Applied Biosystems) and cDNA was analyzed by qRT-CPR. Relative mRNA levels were calculated using the comparative CT method and normalized to cyclophilin miRNA. […]

Slit2 = Slit2 mRNA in adipose tissue after daily CL 316,243 injections; assay type: in vivo, Mus musculus; details: 3 days treatment, daily injections 1 mg/kg; did not reach statistical significance; FIG. 2F
Protocol: as §1, with “[…]. All primers used are listed with their sequences in Table 3 as follows:” for “miRNA.”

PKA signaling pathway [1] = assay: Western blotting of PKA and related signaling in primary inguinal cells; assay type: cell-based, Mus musculus; details: 20 nM NE; FIG. 10M
brown fat = details: humans; Cypess et al. (2015); cited from earlier work
PKA signaling pathway [2] = assay: Western blotting of PKA and related signaling in primary inguinal cells; assay type: cell-based, Mus musculus; details: H89 30 μM, 2 h, primary inguinal cells; FIG. 10C
Protocol: Inguinal and brown stromal-vascular fractions were obtained from 6 weeks old male or newborn mice (postnatal days 5-10) for white and brown fat cultures, respectively. Inguinal fat tissue was dissected and washed with PBS, minced and digested for 45 min at 37° C. in PBS containing 10 mM CaCl2), 2.4 U/ml dispase II (Roche) and 10 mg/ml collagenase D (Roche). Brown fat tissue was dissected, washed with PBS, minced and digested for 45 min at 37° C. in PBS containing 1.3 mM CaCl2, 123 mM NaCl, 5 mM KCl, 5.0 mM glucose, 100 mM HEPES, 4% BSA and 1.5 mg/ml collagenase B (Roche). Digested tissue was filtered through a 100-μm cell strainer and centrifuged at 600 g for 10 min. Pelleted inguinal stromal-vascular cells were grown to confluence and induced to differentiate by an adipogenic cocktail containing 0.02 μM insulin, 1 μM rosiglitazone, 5 μM dexamethasone, 0.5 μM isobuthylmethylxanthine. For differentiation of brown fat cells, 1 nM T3 and 125 μM indomethacin were also added to the adipogenic cocktail. Two days after induction, cells were maintained in adipocyte culture medium containing 0.02 μM insulin and 1 μM rosiglitazone. Where indicated, cells were treated with forskolin (10 μM), norepinephrine (100 nM) for 4 h or with recombinant proteins (1 μg/ml, R&D systems) for 24 h or for the indicated times. For adenoviral overexpression of Slit2-FL, Slit2-N, Slit2-C, LacZ or Cre, virus was added at day 2 of differentiation at a titer of 10^8 particles/well and cells were analyzed at day 6-7. Where indicated, cells were treated with the drugs Erlotinib (SelleckChem), Lapatinib (Santa Cruz), PD0325901 (Santa Cruz), Propranolol (SelleckChem), H89 dihydrochloride (Santa Cruz), SQ-22536 (Santa Cruz) for indicated time points and concentrations.
For Western blotting, homogenized tissues, whole cell lysates, or concentrated serum free conditioned medium were lysed in RIPA buffer containing protease inhibitor cocktail (Thermo Scientific) and phosphatase inhibitor cocktail (Thermo Scientific), separated by SDS-PAGE and transferred to Immobilon-P® membranes (Millipore). For Western blotting of plasma samples, 1 μl of plasma was prepared containing 2× sample buffer (Invitrogen) with reducing agent, boiled and analyzed using Western blot against V5, FLAG, or the indicated antibody. V5-antibody was from Life Technologies and anti-Flag M2-HRP (A8592) from Sigma Aldrich. Anti-Slit2 antibody used was from Abcam (Abcam ab134166). Phospho-PKA Substrate, phospho-PKC Substrate, phospho-ERK1/2, total ERK, phospho-AKT, total AKT, phospho-AMPK, total AMPK, phospho-ATGL, ATGL, phospho-EGFR and EGFR were from Cell Signaling. Protein array was from R&D Systems (Proteome Profiler Mouse Phospho-RTK Array Kit, ARY014). Silverstain (SilverQuest™ Silver Staining Kit, LC6070) was purchased from Thermo Fisher.

[3] = system: cell surface of primary inguinal adipocytes; assay: Cell surface binding by confocal laser scanning microscopy; design: species or system Mus musculus; details: purified FLAG-tagged protein, live adipocytes incubated at 4° C.; FIGS. 10L, 11E
Protocol: Live, primary differentiated adipocytes were incubated with recombinant Slit2-C FLAG-tagged protein for 1 h at 4° C. before fixation and staining with a fluorescent antibody for visualization of cell-surface bound proteins using a confocal laser scanning microscope.
Experiments were performed using a Nikon Ti w/A1R confocal inverted microscope equipped with a Nikon Plan Apo 60x/NA 1.4 oil immersion objective lens using excitation wavelengths of 405 and 561 nm. All experiments were performed under confocal imaging conditions (pinhole <1 airy unit) and images taken with the same laser settings. Image analysis was performed using the Nikon Elements acquisition software. Primary inguinal cells differentiated until day 5 was gently trypsinized and seeded onto poly-D-lysine-coated coverslips (Corning Biocoat 12 mm German Glass coverslips, #08-774-385) in a 6-well plate at a density of 10,000 cells per well in growth medium. On the next day, cell surface binding was performed by adding 1 μg/ml purified protein to cells or FLAG peptide in PBS in serum-containing medium for 1 h at 4° C. on ice. Cells were washed three times in PBS, fixed in 4% paraformaldehyde for 10 min at 4° C., and washed with PBS three times before blocking with 5% BSA in PBS for 1 h at room temperature. Cells treated with protein or FLAG peptide alone were stained using 1:200 anti-Flag M2-HRP overnight at 4° C. […]

CC(C)NCC(O)COc1cccc2ccccc12 (stereo not drawn) [Propranolol]
inhibition of Slit2-C induced thermogenesis (primary inguinal cells; propranolol 100 nM for 24 h, FIG. 10H): did not inhibit

C[C@H](Cc1ccc2c(c1)OC(C(=O)[O-])(C(=O)[O-])O2)NC[C@H](O)c1cccc(Cl)c1.[Na+].[Na+] [CL316, 243]
Slit2 gene expression in iWAT (Slit2): trend to an increase

NC[C@H](O)c1ccc(O)c(O)c1 [NE, norepinephrine]
time of treatment to full PKA phosphorylation response (PKA signaling pathway [1]): ≤ 5 min

Nc1nc(CC(=O)Nc2ccc(CCNC[C@H](O)c3ccccc3)cc2)cs1 [mirabegron]
brown fat activation (brown fat): apparent activation of brown fat
resting metabolic rate (brown fat): increased resting metabolic rate

Cl.Cl.O=S(=O)(NCCNC/C=C/c1ccc(Br)cc1)c1cccc2cnccc12 [H89, H89 dihydrochloride]
phosphorylation of PKA substrates (PKA signaling pathway [2]): significantly reduced
Dio2 mRNA in cells receiving Slit2-C (primary inguinal cells; H89 30 μM, FIG. 10D): down to baseline levels
reduction of Ucp1 mRNA in cells receiving Slit2-C (primary inguinal cells; H89 30 μM, FIG. 10D): 50%

B1: Pm20D1: another FLAG-tagged protein secreted from thermogenic adipocytes, control for specific staining (protein)
chain: STGPRSRENRGASRIPSQFSEEERVAIKEALKGAIQIPTVSFSHEESNTTALAEFGEYIRKAFPTVFHSSLVQHEVVAKYSHLFTIQGSDPSLQPYMLMAHIDVVPAPEEGWEVPPFSGLERNGFIYGRGALDNKNSVMAILHALELLLIRNYSPKRSFFIALGHDEEVSGEKGAQKISALLQARGVQLAFLVDEGSFILEGFIPNLEKPVAMISVTEKGALDLMLQVNMTPGHSSAPPKETSIGILSAAVSRLEQTPMPNMFGGGPLKKTMKLLANEFSFPINIVLRNLWLFHPIVSRIMERNPITNALVRTTTALTMFNAGIKVNVIPPLAQATINCRIHPSQTVHEVLELVKNTVADDRVQLHVLRSFEPLPISPSDDQAMGYQLLQETIRSVFPEVDIVVPGICIANTDTRHYANITNGMYRFNPLPLNPQDFSGVHGINEKVSVQNYQNQVKFIFEFIQNADTYKEPVPHLHEL
modifications: left off: small tags and cut ends
notes: another FLAG-tagged protein secreted from thermogenic adipocytes, control for specific staining
binding to the cell surface of adipocytes [3]: very limited binding
